Columns and labels:
Format in all cases: in vivo, human
[1] = Swagger visual analog scale (VAS) after oral ingestion, crossover, two participants; design: Swagger (Visual Analog Scale) / Swagger VAS MEAN: scale not given here; settings: 100 mg PX
Method: (§1) All supplements were orally ingested with 8 fluid ounces of cold tap water. The order of administration for all interventions was randomized using a random allocation software to ensure randomization and to avoid order effects. After ingestion, participants completed all assessments in an identical fashion 30, 60, 90, 120, and 180 minutes after ingestion of their assigned supplement. All study visits took place between 0600-1000 hours. At least 72 hours of rest took place between each condition.

[2] = Appetite visual analog scale (VAS) after oral ingestion, crossover, two participants; design: Appetite Visual Analog Scale / Appetite Visual Analog Scale MEAN: scale not given here; settings: for Appetite Visual Analog Scale MEAN: mean 30-180 min
Method: All supplements were orally ingested with 8 fluid ounces of cold tap water. The order of administration for all interventions was randomized using a random allocation software to ensure randomization and to avoid order effects. […] All study visits took place between 0600-1000 hours. At least 72 hours of rest will take place between each condition.

[3] = Resting energy expenditure after oral ingestion of PX, crossover, two participants
Method: as §1, with “Upon determination of baseline resting energy expenditure, two participants were assigned in a randomized, double-blind, placebo-controlled, crossover fashion to ingest a non-energetic placebo (maltodextrin), 100 mg paraxanthine (PX), 200 mg PX or 300 mg PX. All supplements” for “All supplements”

[4] = Self-reported swagger after consuming paraxanthine (individual reports); settings: person
[5] = Respiratory quotient (RQ=VCO2/VO2) after oral ingestion, crossover, two participants; settings: 100 mg PX
Method: as §1, with “Upon determination of baseline respiratory quotient (RQ=VCO2/VO2) two participants were assigned in a randomized, double-blind, placebo-controlled, crossover fashion to ingest a non-energetic placebo (maltodextrin) or a 100 mg paraxanthine (PX). All supplements” for “All supplements”
The lower the RQ, the more fat that is being oxidized for body energy needs. The closer to 1.0 the more carbohydrate is being burned for energy needs. If numbers are lower, more fat is being oxidized. PX reduced the respiratory quotient by more than 10% compared to placebo, increasing fat oxidation (“fat burning”).

Compound: Cn1c(=O)[nH]c2ncn(C)c2c1=O [PX, paraxanthine]
- increase of swagger over 200 mg caffeine ingestion [1]: 26%
- increase of swagger over placebo [1]: 21%
- Swagger (Visual Analog Scale) ([1]; 30 min, person one): 91
- Swagger (Visual Analog Scale) ([1]; 30 min, person two): 71
- Swagger (Visual Analog Scale) ([1]; 60 min, person one): 80
- Swagger (Visual Analog Scale) ([1]; 60 min, person two): 71
- Swagger (Visual Analog Scale) ([1]; 90 min, person one): 89
- Swagger (Visual Analog Scale) ([1]; 90 min, person two): 80
- Swagger (Visual Analog Scale) ([1]; 120 min, person one): 81
- Swagger (Visual Analog Scale) ([1]; 120 min, person two): 75
- Swagger (Visual Analog Scale) ([1]; 180 min, person one): 90
- Swagger (Visual Analog Scale) ([1]; 180 min, person two): 70
- Swagger VAS MEAN ([1]; Average of both): 79.8
- Swagger VAS MEAN ([1]; person one): 86.2
- Swagger VAS mean Δ vs. PLA ([1]; person one): +7.6
- Swagger VAS MEAN ([1]; person two): 73.4
- Swagger VAS mean Δ vs. PLA ([1]; person two): +20.0
- reduction of mean appetite compared to placebo ([2]; 100 mg PX): 38.5%
- appetite reduction compared to CA ([2]; 100 mg PX and 300 mg PX vs 200 mg CA): greater reduction in appetite compared to CA
- Appetite Visual Analog Scale ([2]; 100 mg PX, 30 min, person one): 29
- Appetite Visual Analog Scale ([2]; 100 mg PX, 30 min, person two): 70
- Appetite Visual Analog Scale ([2]; 100 mg PX, 60 min, person one): 27
- Appetite Visual Analog Scale ([2]; 100 mg PX, 60 min, person two): 65
- Appetite Visual Analog Scale ([2]; 100 mg PX, 90 min, person one): 25
- Appetite Visual Analog Scale ([2]; 100 mg PX, 90 min, person two): 60
- Appetite Visual Analog Scale ([2]; 100 mg PX, 120 min, person one): 29
- Appetite Visual Analog Scale ([2]; 100 mg PX, 120 min, person two): 85
- Appetite Visual Analog Scale ([2]; 100 mg PX, 180 min, person one): 35
- Appetite Visual Analog Scale ([2]; 100 mg PX, 180 min, person two): 90
- Appetite Visual Analog Scale MEAN ([2]; 100 mg PX, Average of both): 51.5
- Appetite Visual Analog Scale MEAN ([2]; 100 mg PX, person one): 29.0
- Appetite Visual Analog Scale MEAN ([2]; 100 mg PX, person two): 74.0
- Appetite VAS mean Δ vs. PLA ([2]; 100 mg PX, person one): −65.2
- Appetite VAS mean Δ vs. PLA ([2]; 100 mg PX, person two): +0.8
- reduction of mean appetite compared to placebo ([2]; 300 mg PX): 43.1%
- Appetite Visual Analog Scale ([2]; 300 mg PX, 30 min, person one): 24
- Appetite Visual Analog Scale ([2]; 300 mg PX, 30 min, person two): 65
- Appetite Visual Analog Scale ([2]; 300 mg PX, 60 min, person one): 30
- Appetite Visual Analog Scale ([2]; 300 mg PX, 60 min, person two): 60
- Appetite Visual Analog Scale ([2]; 300 mg PX, 90 min, person one): 29
- Appetite Visual Analog Scale ([2]; 300 mg PX, 90 min, person two): 55
- Appetite Visual Analog Scale ([2]; 300 mg PX, 120 min, person one): 27
- Appetite Visual Analog Scale ([2]; 300 mg PX, 120 min, person two): 60
- Appetite Visual Analog Scale ([2]; 300 mg PX, 180 min, person one): 26
- Appetite Visual Analog Scale ([2]; 300 mg PX, 180 min, person two): 80
- Appetite Visual Analog Scale MEAN ([2]; 300 mg PX, Average of both): 45.6
- Appetite Visual Analog Scale MEAN ([2]; 300 mg PX, person one): 27.2
- Appetite Visual Analog Scale MEAN ([2]; 300 mg PX, person two): 64.0
- Appetite VAS mean Δ vs. 100 mg PX ([2]; 300 mg PX, person one): −1.8
- Appetite VAS mean Δ vs. PLA ([2]; 300 mg PX, person one): −67.0
- Appetite VAS mean Δ vs. 100 mg PX ([2]; 300 mg PX, person two): −10.0
- Appetite VAS mean Δ vs. PLA ([2]; 300 mg PX, person two): −9.2
- Resting Energy Expenditure ([3]; 100 mg PX, 30 min, person one): 1,943 kcal/day
- Resting Energy Expenditure ([3]; 100 mg PX, 30 min, person two): 1,690 kcal/day
- Resting Energy Expenditure ([3]; 100 mg PX, 60 min, person one): 1,862 kcal/day
- Resting Energy Expenditure ([3]; 100 mg PX, 60 min, person two): 1,809 kcal/day
- Resting Energy Expenditure ([3]; 100 mg PX, 90 min, person one): 1,921 kcal/day
- Resting Energy Expenditure ([3]; 100 mg PX, 90 min, person two): 1,899 kcal/day
- Resting Energy Expenditure ([3]; 100 mg PX, 120 min, person one): 1,990 kcal/day
- Resting Energy Expenditure ([3]; 100 mg PX, 120 min, person two): 1,787 kcal/day
- Resting Energy Expenditure ([3]; 100 mg PX, 180 min, person one): 2,129 kcal/day
- Resting Energy Expenditure ([3]; 100 mg PX, 180 min, person two): 1,796 kcal/day
- Resting Energy Expenditure MEAN ([3]; 100 mg PX, Average of both): 1,883 kcal/day
- Resting Energy Expenditure MEAN ([3]; 100 mg PX, person one): 1,969 kcal/day
- Resting Energy Expenditure MEAN ([3]; 100 mg PX, person two): 1,796 kcal/day
- Resting Energy Expenditure ([3]; 200 mg PX, 30 min, person one): 2,007 kcal/day
- Resting Energy Expenditure ([3]; 200 mg PX, 30 min, person two): 1,703 kcal/day
- Resting Energy Expenditure ([3]; 200 mg PX, 60 min, person one): 1,702 kcal/day
- Resting Energy Expenditure ([3]; 200 mg PX, 60 min, person two): 1,782 kcal/day
- Resting Energy Expenditure ([3]; 200 mg PX, 90 min, person one): 2,048 kcal/day
- Resting Energy Expenditure ([3]; 200 mg PX, 90 min, person two): 1,864 kcal/day
- Resting Energy Expenditure ([3]; 200 mg PX, 120 min, person one): 2,221 kcal/day
- Resting Energy Expenditure ([3]; 200 mg PX, 120 min, person two): 1,872 kcal/day
- Resting Energy Expenditure ([3]; 200 mg PX, 180 min, person one): 2,067 kcal/day
- Resting Energy Expenditure ([3]; 200 mg PX, 180 min, person two): 1,853 kcal/day
- Resting Energy Expenditure MEAN ([3]; 200 mg PX, Average of both): 1,912 kcal/day
- Resting Energy Expenditure MEAN ([3]; 200 mg PX, person one): 2,009 kcal/day
- Resting Energy Expenditure MEAN ([3]; 200 mg PX, person two): 1,815 kcal/day
- Resting Energy Expenditure ([3]; 300 mg PX, 30 min, person one): 2,267 kcal/day
- Resting Energy Expenditure ([3]; 300 mg PX, 30 min, person two): 1,840 kcal/day
- Resting Energy Expenditure ([3]; 300 mg PX, 60 min, person one): 2,354 kcal/day
- Resting Energy Expenditure ([3]; 300 mg PX, 60 min, person two): 1,749 kcal/day
- Resting Energy Expenditure ([3]; 300 mg PX, 90 min, person one): 2,312 kcal/day
- Resting Energy Expenditure ([3]; 300 mg PX, 90 min, person two): 1,769 kcal/day
- Resting Energy Expenditure ([3]; 300 mg PX, 120 min, person one): 2,436 kcal/day
- Resting Energy Expenditure ([3]; 300 mg PX, 120 min, person two): 1,831 kcal/day
- Resting Energy Expenditure ([3]; 300 mg PX, 180 min, person one): 2,402 kcal/day
- Resting Energy Expenditure ([3]; 300 mg PX, 180 min, person two): 1,913 kcal/day
- Resting Energy Expenditure MEAN ([3]; 300 mg PX, Average of both): 2,098 kcal/day
- Resting Energy Expenditure MEAN ([3]; 300 mg PX, person one): 2,374 kcal/day
- Resting Energy Expenditure MEAN ([3]; 300 mg PX, person two): 1,822 kcal/day
- self-reported swagger ([4]; 50 mg daily during two weeks): increase in swagger
- self-reported swagger ([4]; 100 mg, workplace and team sports): significant increases in swagger
- self-reported swagger ([4]; 200 mg): an increase in swagger
- self-reported swagger ([4]; 400 mg): a significant boost in swagger
- reduction of respiratory quotient compared to placebo [5]: more than 10%
- Respiratory Quotient ([5]; 30 min, person one): 0.68
- Respiratory Quotient ([5]; 30 min, person two): 0.81
- Respiratory Quotient ([5]; 60 min, person one): 0.66
- Respiratory Quotient ([5]; 60 min, person two): 0.74
- Respiratory Quotient ([5]; 90 min, person one): 0.72
- Respiratory Quotient ([5]; 90 min, person two): 0.74
- Respiratory Quotient ([5]; 120 min, person one): 0.70
- Respiratory Quotient ([5]; 120 min, person two): 0.69
- Respiratory Quotient ([5]; 180 min, person one): 0.77
- Respiratory Quotient ([5]; 180 min, person two): 0.70
- Respiratory Quotient MEAN ([5]; Average of both): 0.725
- Respiratory Quotient MEAN ([5]; person one): 0.71
- Respiratory Quotient MEAN Δ from 0 ([5]; person one): −0.014
- Respiratory Quotient MEAN ([5]; person two): 0.74
- Respiratory Quotient MEAN Δ from 0 ([5]; person two): −0.004
- Respiratory Quotient ([5]; time 0 (baseline), person one): 0.72
- Respiratory Quotient ([5]; time 0 (baseline), person two): 0.74

Reference: patent publication US20220305019A1, “PARAXANTHINE-BASED COMPOSITIONS FOR PROMOTING WEIGHT LOSS” (Ingenious Ingredients, LP, priority 2021, published 2022)
